This note sets out measurements from DBAASP.

Structures are written as SMILES. Values after ≈ are worked out from the molar mass of the structure shown.

Among the test systems are Salmonella typhimurium; Escherichia coli; Staphylococcus aureus; Fusarium verticillioides; Pseudomonas aeruginosa; Botrytis cinerea; Saccharomyces cerevisiae; Proteus vulgaris; Bacillus subtilis; Trichosporon beigelii; Fusarium solani; Rhizoctonia solani; Trichoderma asperellum; Fusarium oxysporum; Ramulariopsis gossypii; Vibrio alginolyticus; Aeromonas hydrophila; Vibrio fluvialis; Vibrio parahaemolyticus; Streptococcus pyogenes.

Holding throughout (experiment): ≥ marks a high value that may be exact or a test limit, other limits are often not marked, values filed in µg/mL are converted to µM
The subject of test [1] is Listeria monocytogenes KCTC 3710.
Test [2] deals with Aspergillus fumigatus KCTC 6145.
Test [3] relates to Staphylococcus epidermidis.
Test [4] has as its system Escherichia coli O157:H7 ATCC 43895.
For test [5], the system named is Candida albicans KCTC 7270.
For test [6], the system named is Aspergillus flavus KCTC 9471.
Test [7] has as its system Bacillus subtilis ATCC 23857.
The subject of test [8] is Fusarium oxysporum f.sp. vasinfectum.
In test [9] the test system is Xanthomonas campestris pv. citri.
Test [10] deals with Pectobacterium carotovorum.
Test [11] concerns Pseudomonas syringae pv. tabaci.
Test [12] deals with Bacillus cereus ATCC 14579.
Test [13] has as its system Cryptococcus neoformans ATCC 28957.
Test [14] has as its system Staphylococcus aureus ATCC 25923.
In test [15] the test system is Escherichia coli ATCC 25922.
Test [16] relates to Pseudomonas aeruginosa ATCC 27853.
In test [17] the test system is Candida albicans ATCC 90028.
Test [18] relates to Pseudomonas syringae EPS 94.
Test [19] concerns Xanthomonas vesicatoria 2133-2.
In test [20] the test system is Penicillium expansum EPS 26.
The subject of test [21] is Erwinia amylovora PMV 6076.
Test [22] has as its system Fusarium oxysporum f. sp. lycopersici ATCC 201829.
In test [23] the test system is Rhizopus stolonifer CECT 2344.
Test [24] concerns Aspergillus niger CECT 2694.
Test [25] deals with Staphylococcus aureus ATCC 6538P.
Test [26] has as its system Escherichia coli K-12 594.
Test [27] concerns Staphylococcus aureus SR1550.
For test [28], the system named is Streptococcus gordonii ATCC 10558.
In test [29] the test system is Streptococcus mutans UA159.
Test [30] deals with Streptococcus sanguinis ATCC 49295.
The subject of test [31] is Streptococcus mutans GS-5.

In general, MIC refers to the lowest concentration that inhibits growth of the organism. With `CC[C@H](C)[C@H](NC(=O)[C@H](CCCCN)NC(=O)[C@H](CO)NC(=O)[C@H](Cc1ccccc1)NC(=O)[C@H](CC(C)C)NC(=O)[C@H](CCCCN)NC(=O)[C@H](CCC(=O)O)NC(=O)[C@H](CC(C)C)NC(=O)[C@H](CCCN=C(N)N)NC(=O)[C@H](CCCCN)NC(=O)[C@H](Cc1ccccc1)NC(=O)[C@@H](NC(=O)[C@H](CCCCN)NC(=O)[C@H](CCCCN)NC(=O)[C@H](C)N)C(C)C)C(=O)N[C@@H](Cc1ccc(O)cc1)C(=O)N[C@@H](CC(N)=O)C(=O)N[C@@H](Cc1ccc(O)cc1)C(=O)N[C@@H](CCCCN)C(N)=O` [AKKVFKRLEKLFSKIYNYK], the MIC in test [1] is 0.78 µM (≈ 1.87 µg/mL); in the test on Salmonella typhimurium, 0.39 µM (≈ 0.937 µg/mL); in test [2], at least 35.4 µM; in test [3], 3.13 µM (≈ 7.52 µg/mL); with Escherichia coli, 3.13 µM (≈ 7.52 µg/mL); in the test on Staphylococcus aureus, 3.13 µM (≈ 7.52 µg/mL). Further, the MIC in the test on Fusarium verticillioides came to 12.5 µM (≈ 30 µg/mL); in the test on Pseudomonas aeruginosa it was 3.13 µM (≈ 7.52 µg/mL); in the test with Botrytis cinerea, 6.25 µM (≈ 15 µg/mL); in the test with Saccharomyces cerevisiae it was 25 µM (≈ 60.1 µg/mL); in the test on Proteus vulgaris it was 4.42 µM (≈ 10.6 µg/mL); in the test with Bacillus subtilis, 1.56 µM (≈ 3.75 µg/mL). The MIC is 3.13 µM (≈ 7.52 µg/mL) in test [4], 12.5 µM (≈ 30 µg/mL) in [5], 1.56 µM (≈ 3.75 µg/mL) against Trichosporon beigelii and at least 50 µM in test [6].

Turning to `CC(C)C[C@H](NC(=O)[C@H](C)NC(=O)[C@H](CC(C)C)NC(=O)[C@@H](NC(=O)[C@H](C)NC(=O)[C@H](CCCCN)NC(=O)[C@H](CC(C)C)NC(=O)[C@H](CC(C)C)NC(=O)[C@@H](NC(=O)[C@H](Cc1cnc[nH]1)NC(=O)[C@@H](NC(=O)[C@H](CCCCN)NC(=O)[C@H](CO)NC(=O)[C@H](CC(C)C)NC(=O)[C@@H](NC(=O)[C@@H](N)CCCCN)C(C)C)C(C)C)[C@@H](C)O)C(C)C)C(N)=O` [KVLSKVHTLLKAVLAL], the MIC against Fusarium solani was 16 µM (≈ 27.7 µg/mL); in test [7], 1 µM (≈ 1.73 µg/mL); against Rhizoctonia solani it was 16 µM (≈ 27.7 µg/mL); in test [8], 4 µM (≈ 6.93 µg/mL); in [9], 1 µM (≈ 1.73 µg/mL); in [10], 1 µM (≈ 1.73 µg/mL). The minimum inhibitory concentration (MIC) against Trichoderma asperellum is 16 µM (≈ 27.7 µg/mL); in the test with Fusarium oxysporum it was 4 µM (≈ 6.93 µg/mL); in the test on Ramulariopsis gossypii it was 2 µM (≈ 3.46 µg/mL); in test [11], 4 µM (≈ 6.93 µg/mL); in [12], 3.33 µM (≈ 5.77 µg/mL); in test [13], 4 µM (≈ 6.93 µg/mL). Moreover, the minimal inhibitory concentration (MIC) turned out to be 4 µM (≈ 6.93 µg/mL) in test [14], 2 µM (≈ 3.46 µg/mL) in test [15], 5.33 µM (≈ 9.23 µg/mL) in test [16] and 8 µM (≈ 13.9 µg/mL) in test [17].

On to `CC[C@H](C)[C@H](NC(=O)[C@H](CCCCN)NC(=O)[C@H](CCCCN)NC(=O)[C@H](Cc1ccccc1)NC(=O)[C@H](CC(C)C)NC(=O)[C@H](CCCCN)NC(=O)[C@@H](N)CC(C)C)C(=O)N[C@@H](CC(C)C)C(=O)N[C@@H](CCCCN)C(=O)N[C@H](C(=O)N[C@@H](CC(C)C)C(N)=O)C(C)C` [LKLFKKILKVL], for which the MIC in test [18] is 5.92 µM (≈ 7.94 µg/mL); in test [19], 11 µM (≈ 14.7 µg/mL); in test [20], at least 35.4 µM; in test [21] it was 5.92 µM (≈ 7.94 µg/mL); in test [22] it was 0.424 µM (≈ 0.569 µg/mL); in test [23] it was at least 35.4 µM. In test [24], this compound came in with a minimum inhibitory concentration (MIC) of 22.4 µM (≈ 30 µg/mL).

For the compound `CC(C)C[C@H](NC(=O)[C@H](CCCN=C(N)N)NC(=O)[C@H](CC(C)C)NC(=O)[C@H](CC(C)C)NC(=O)[C@H](CC(C)C)NC(=O)[C@H](CC(C)C)NC(=O)[C@H](CC(C)C)NC(=O)[C@H](CCCN=C(N)N)NC(=O)[C@H](CC(C)C)NC(=O)[C@@H](N)CCCN=C(N)N)C(=O)N[C@@H](CCCN=C(N)N)C(N)=O` [RLRLLLLLRLR], the MIC stood at 1.39 µM (≈ 2 µg/mL) in test [25], 24.4 µM (≈ 35 µg/mL) in test [26] and 24.4 µM (≈ 35 µg/mL) in [27].

For the compound `CC(C)C[C@H](NC(=O)[C@H](CCCN=C(N)N)NC(=O)[C@H](Cc1ccccc1)NC(=O)[C@H](Cc1ccccc1)NC(=O)[C@@H](N)[C@@H](C)O)C(=O)N[C@@H](Cc1ccccc1)C(=O)N[C@@H](CC(N)=O)C(=O)N[C@@H](CCCN=C(N)N)C(=O)N[C@@H](CO)C(=O)N[C@@H](Cc1ccccc1)C(=O)N[C@H](C(=O)O)[C@@H](C)O` [TFFRLFNRSFT], the MIC in test [28], in test [29], in test [30] and in test [31] was at least 178 µM each time.

In the case of `CC[C@H](C)[C@H](NC(=O)[C@H](CC(N)=O)NC(=O)[C@H](CC(=O)O)NC(=O)[C@H](Cc1ccc(O)cc1)NC(=O)[C@@H](NC(=O)[C@H](CCCCN)NC(=O)[C@H](Cc1cnc[nH]1)NC(=O)[C@H](CC(C)C)NC(=O)[C@H](CC(C)C)NC(=O)[C@H](Cc1ccccc1)NC(=O)[C@H](CC(N)=O)NC(=O)[C@@H](N)C(C)C)[C@@H](C)CC)C(=O)N[C@@H](CCCN=C(N)N)C(=O)N[C@@H](Cc1ccc(O)cc1)C(=O)N[C@@H](CO)C(=O)O` [VNFLLHKIYDNIRYS], the MIC with Vibrio alginolyticus is at least 132 µM; against Escherichia coli it was 4.12 µM (≈ 7.8 µg/mL); against Aeromonas hydrophila it was 8.23 µM (≈ 15.6 µg/mL); in the test with Staphylococcus aureus, over 132 µM; in the test on Vibrio fluvialis, at least 132 µM; in the test on Vibrio parahaemolyticus, at least 33 µM. In the test with Streptococcus pyogenes, the minimum inhibitory concentration (MIC) is at least 33 µM.
